Results as given in patent publication US20240327356A1, “PYRIMIDINE BASED RAS MODULATORS AND USES THEREOF” (QUANTA THERAPEUTICS, INC., priority 2021, published 2024).

Legend:
[1] = molecular target: KRAS^G12D-FMe.RAF1^RBDCRD complex (Homo sapiens, UniProt P01116, G12D); test: SHG assay: binding to bilayer-tethered KRAS G12D/RAF1 complex; conditions: GppNHp-loaded complex on PS bilayer; compound 0.027-40 μM, monitored over 60 min
Procedure: Compounds suspected to carry intrinsic SHG activity were tested in the presence of an unlabeled KRAS^G12D-FMe.RAF1^RBDCRD complex to monitor binding. PS bilayer was prepared from PS-enriched small unilamellar vesicles (SUVs) purchased from Biodesy, Inc. The concentrated SUVs were diluted in TBS buffer containing 5 mM CaCl2 and incubated on a glass-bottom 384-well Biodesy Delta™ assay plate to allow bilayer formation. Equimolar amounts of GppNHp-loaded KRAS^G12D-FMe and RAF1^RBDCRD were mixed and incubated together on PS bilayer overnight at 4° C. The following day, untethered protein was removed by washing with assay buffer (20 mM Hepes, pH 7.4, […], 1 mM TCEP, 5 μM GppNHp). The SHG signal produced by bilayer-tethered complex was ready using the Biodesy Delta™ platform where each well was pulsed with an 800 nm laser and the resulting second harmonic signal intensity at 400 nm was collected. Compounds were diluted into the same assay buffer and applied to the complex at a final concentration range spanning 0.027 μM-40 μM and the SHG intensity of each well was monitored at 5 minute intervals over a 60 minute time period.

[2] = system: Phospho-ERK (Thr202/Tyr204) in MiaPaCa-2 cells; test: pERK inhibition in MiaPaca-2 cell line (HTRF); assay type: cell-based; conditions: Homo sapiens, MIA PaCa-2, 1 hour incubation with compound
Procedure: MiaPaCa-2 cells (ATCC CRL-1420) were cultured in high glucose DMEM (Gibco 11965092) containing 10% fetal bovine serum (Gibco 1993708) and 1× Penicillin/Streptomycin, at 37° C. in a humid atmosphere of 5% CO2 in the air. Cells were plated in tissue-culture treated 96-well plates at a density of 10,000 cells/well and allowed to attach for 16 hours. The medium was then removed, and diluted compounds were added in a final concentration of 0.5% DMSO. After 1 hour of incubation, cells were lysed by the lysis buffer supplied with the Phospho-ERK (Thr202/Tyr204) cellular HTRF kit (Cisbio 64ERKPEH) and transferred to a 384-well low-volume white plate (PerkinElmer 6008280). The cell lysates were treated with the detection reagents supplied with the HTRF kit for 4 hours at ambient temperature in darkness. Two fluorescence intensities at the wavelengths (665 and 620 nm) were measured by the Envision plate reader (Perkin Elmer), and the data were processed and fitted to a 4-parameter logistic model for IC50 calculation (GraphPad Prism 9).

| SMILES | EC50 [1] [µM] | IC50 [2] [µM] |
| --- | --- | --- |
| N#CC1(C(=O)N2CC=C(c3cnc(-c4ccc(Cl)c(C(F)(F)F)c4)nc3OCCN)C2)CC1 [Compound 36] | 1 to 10 | 1 to 10 |
| Cc1ccc(-c2ncc(CN3CCNC3=O)c(N3CCC(CN)C3)n2)cc1Cl (centres unmarked) [Compound 119] | 1 to 10 | 1 to 10 |
| Cc1ccc(-c2ncc(CNS(=O)(=O)C3CC3)c(N3CCC(CN)C3)n2)cc1Cl (centres unmarked) [Compound 82] | 1 to 10 | 1 to 10 |
| NCC1CCN(c2nc(-c3ccc(C(F)(F)F)cc3F)ncc2C2CCNC2)C1 (centres unmarked) [Compound 17, [1-[2-[2-fluoro-4-(trifluoromethyl)phenyl]-5-pyrrolidin-3-yl-pyrimidin-4-yl]pyrrolidin-3-yl]methanamine] | 1 to 10 | 1 to 10 |
| Cc1ccc(-c2ncc(CNC(=O)C3(N)CC3)c(N3CCC(CN)C3)n2)cc1Cl (centres unmarked) [Compound 81] | 10 to 50 | 1 to 10 |
| Cc1ccc(-c2ncc(CNS(=O)(=O)c3ccccc3)c(N3CCC(CN)C3)n2)cc1Cl (centres unmarked) [Compound 94] | 1 to 10 | 1 to 10 |
| N#CC1(C(=O)NCc2cnc(-c3ccc(Cl)c(C(F)(F)F)c3)nc2N2CCNCC2)CC1 [Compound 54] | 1 to 10 | 1 to 10 |
| Cc1ccc(-c2ncc(CNC(=O)C3(C#N)CC3)c(N3CCC(F)(CN)C3)n2)cc1Cl (centres unmarked) [Compound 63] | 1 to 10 | 0.1 to 1 |
| Cc1ccc(-c2ncc(NC(=O)C3CC3)c(N3CCC(CN)C3)n2)cc1Cl (centres unmarked) [Compound 113] | 10 to 50 | 1 to 10 |
| Cc1ccc(-c2ncc(CN3CCCC3=O)c(N3CCC(CN)C3)n2)cc1Cl (centres unmarked) [Compound 122] | 1 to 10 | 1 to 10 |
| NCC1CCN(c2nc(-c3ccc(Cl)cc3NC(=O)C3(F)CC3)ncc2C2=CCNC2)C1 (centres unmarked) [Compound 23] | 1 to 10 | 1 to 10 |
| N#CC1(C(=O)NCc2cnc(-c3ccc(Cl)c(C(F)(F)F)c3)nc2OCCN)CC1 [Compound 46] | 1 to 10 | 1 to 10 |
| Cc1ccc(-c2ncc(NC(=O)C3(C#N)CC3)c(N3CCC(CN)C3)n2)cc1Cl (centres unmarked) [Compound 110] | 10 to 50 | 1 to 10 |
| CN1CCN(c2nc(-c3ccc(Cl)c(C(F)(F)F)c3)ncc2CNC(=O)C2(C#N)CC2)CC1 [Compound 71] | 1 to 10 | 1 to 10 |
| N#CC1(C(=O)NCc2cnc(-c3ccc(Cl)c(C(F)(F)F)c3)nc2OCCCN)CC1 [Compound 74] | 1 to 10 | 1 to 10 |
| Cc1ccc(-c2ncc(CNC(=O)C3(C#N)CC3)c(N3CCC[C@H]3CN)n2)cc1Cl [Compound 68] | 10 to 50 | 1 to 10 |

| SMILES | EC50 [1] [µM] | IC50 [2] [µM] |
| --- | --- | --- |
| NC[C@H]1CCCN1c1nc(-c2ccc(Cl)c(C(F)(F)F)c2)ncc1C1=CCNC1 [Compound 33] | 1 to 10 | 1 to 10 |
| NCC1CCN(c2nc(-c3ccc(C(F)(F)F)c(Cl)c3)ncc2N2CCNC2=O)C1 (centres unmarked) [Compound 109, 1-[4-[3-(aminomethyl)pyrrolidin-1-yl]-2-[3-chloro-4-(trifluoromethyl)phenyl]pyrimidin-5-yl]imidazolidin-2-one] | 1 to 10 | 1 to 10 |
| N#CC1(C(=O)NCc2cnc(-c3ccc(Cl)c(C(F)(F)F)c3)nc2OC2CCNC2)CC1 (centres unmarked) [Compound 38] | 10 to 50 | 1 to 10 |
| Cc1ccc(-c2ncc(CN(C)C(=O)C3(F)CC3)c(N3CCNCC3)n2)cc1Cl [Compound 98] | 1 to 10 | 1 to 10 |
| N[C@@H]1CN(c2nc(-c3ccc(Cl)c(C(F)(F)F)c3)ncc2C2=CCNC2)C[C@H]1O [Compound 40] | 0.1 to 1 | 1 to 10 |
| Cc1ccc(-c2ncc(CNC(=O)C3(O)CC3)c(N3CCC(CN)C3)n2)cc1Cl (centres unmarked) [Compound 96] | 1 to 10 | 1 to 10 |
| Cc1ccc(-c2ncc(CNC(=O)C3(C#N)CC3)c(N3CC[C@H](N)C3)n2)cc1Cl [Compound 65] | 1 to 10 | 0.1 to 1 |
| NCC1CCN(c2nc(-c3ccc(Cl)c(Cl)c3)ncc2C2=CCNC2)C1 (centres unmarked) [Compound 10] | 1 to 10 | 1 to 10 |
| Cc1ccc(-c2ncc(CNC(=O)C3(C)COC3)c(N3CCC(CN)C3)n2)cc1Cl (centres unmarked) [Compound 80] | 10 to 50 | 1 to 10 |
| Cc1ccc(-c2ncc(CN3CCOC3=O)c(N3CCC(CN)C3)n2)cc1Cl (centres unmarked) [Compound 121, 3-[[4-[3-(aminomethyl)pyrrolidin-1-yl]-2-(3-chloro-4-methyl-phenyl)pyrimidin-5-yl]methyl]oxazolidin-2-one] | 1 to 10 | 1 to 10 |
| NCC1CCN(c2nc(-c3ccc(C(F)(F)F)cc3F)ncc2CNC(=O)C2(CN)CC2)C1 (centres unmarked) [Compound 25] | 1 to 10 | 10 to 50 |
| N#CC1(C(=O)NCc2cnc(-c3ccc(Cl)c(C(F)(F)F)c3)nc2N2C[C@@H](N)[C@H](O)C2)CC1 [Compound 37] | 10 to 50 | 1 to 10 |
| Cc1ccc(-c2ncc(CNC(=O)C3(C#N)CC3)c(C3=CCC(N)CC3)n2)cc1Cl (centres unmarked) [Compound 77] | 1 to 10 | 1 to 10 |
| Cc1ccc(-c2ncc(OCC(=O)NC3CC3)c(N3CCC(CN)C3)n2)cc1Cl (centres unmarked) [Compound 126] | 1 to 10 | 1 to 10 |
| N[C@@H]1CN(c2nc(-c3ccc(Cl)cc3NC(=O)C3CC3)ncc2C2=CCNC2)C[C@H]1O [Compound 43] | 10 to 50 | 10 to 50 |
| Cc1ccc(-c2ncc(CNC(=O)C3(F)CC3)c(N3CC(CN)C3)n2)cc1Cl [Compound 101] | 10 to 50 | 1 to 10 |

Other lines, results leading:

| EC50 [1] [µM] | IC50 [2] [µM] | SMILES |
| --- | --- | --- |
| 1 to 10 | 1 to 10 | N#CC1(C(=O)NCc2cnc(-c3ccc(Cl)c(C(F)(F)F)c3)nc2N2CCC[C@@H]2CN)CC1 [Compound 66] |
| 1 to 10 | 1 to 10 | C=C(F)C(=O)NCc1cnc(-c2ccc(C)c(Cl)c2)nc1N1CCC(CN)C1 (centres unmarked) [Compound 76] |
| 1 to 10 | 1 to 10 | N#Cc1cc(-c2ncc(CNc3ccccc3)c(N3CCC(CN)C3)n2)ccc1C(F)(F)F (centres unmarked) [Compound 45, 5-[4-[3-(aminomethyl)pyrrolidin-1-yl]-5-(anilinomethyl)pyrimidin-2-yl]-2-(trifluoromethyl)benzonitrile] |
| 1 to 10 | 1 to 10 | NCC1CCN(c2nc(-c3ccc(Cl)c(C(F)(F)F)c3)ncc2OC2CCOC2)C1 (centres unmarked) [Compound 12] |
| 1 to 10 | 10 to 50 | NC[C@@H]1CCN(c2nc(-c3ccc(Cl)c(C(F)(F)F)c3)ncc2C2CC2)C1 [Compound 14] |
| 1 to 10 | 1 to 10 | Cc1ccc(-c2ncc(CNC(=O)C3(F)CC3)c(N3CC[C@H](CN)C3)n2)cc1Cl [Compound 93] |
| 1 to 10 | 1 to 10 | N#CC1(C(=O)NCc2cnc(-c3ccc(Cl)c(C(F)(F)F)c3)nc2N2CCOC(CN)C2)CC1 (centres unmarked) [Compound 51] |
| 1 to 10 | 1 to 10 | NCC1CCN(c2nc(-c3ccc(Cl)c(C(F)(F)F)c3)ncc2CNC(=O)C2(F)CC2)C1 (centres unmarked) [Compound 7] |
| 1 to 10 | 1 to 10 | COC(=O)NCc1cnc(-c2ccc(C)c(Cl)c2)nc1N1CCC(CN)C1 (centres unmarked) [Compound 60] |
| 1 to 10 | 10 to 50 | NCc1cnc(-c2ccc(Cl)c(C(F)(F)F)c2)nc1N1CC[C@@H](CN)C1 [Compound 1] |
| 10 to 50 | 10 to 50 | NCC1CCN(c2nc(-c3ccc(Cl)c(C(F)(F)F)c3)ncc2[N+](=O)[O-])C1 (centres unmarked) [Compound 56] |
| 1 to 10 | 1 to 10 | N#CC1(C(=O)NCc2cnc(-c3ccc(Cl)c(C(F)(F)F)c3)nc2N2CCC(N)CC2)CC1 [Compound 48] |
| 0.1 to 1 | 1 to 10 | NC[C@@H]1CCN(c2nc(-c3ccc(Cl)c(C(F)(F)F)c3)ncc2C2=CCNC2)C1 [Compound 2, [(3S)-1-[2-[4-chloro-3-(trifluoromethyl)phenyl]-5-(2,5-dihydro-1H-pyrrol-3-yl)pyrimidin-4-yl]pyrrolidin-3-yl]methanamine] |
| 1 to 10 | 1 to 10 | N#CC1(C(=O)NCc2cnc(-c3ccc(C(F)(F)F)c(Cl)c3)nc2N2CCC(CN)C2)CC1 (centres unmarked) [Compound 75] |
| 1 to 10 | 10 to 50 | NCC1CCN(c2nc(-c3ccc(Cl)c(C(F)(F)F)c3)ncc2CNC(=O)c2ccccc2)C1 (centres unmarked) [Compound 9] |
| 1 to 10 | 1 to 10 | NCC1CCN(c2nc(-c3ccc(Cl)c(C(F)(F)F)c3)ncc2CNCCO)C1 (centres unmarked) [Compound 49, 2-[[4-[3-(aminomethyl)pyrrolidin-1-yl]-2-[4-chloro-3-(trifluoromethyl)phenyl]pyrimidin-5-yl]methylamino]ethanol] |
| 0.1 to 1 | 1 to 10 | Cc1ccc(-c2ncc(C3=CCNC3)c(N3CCC(CN)C3)n2)cc1C(F)(F)F (centres unmarked) [Compound 32] |
